In this assay the target is DCN1 (Homo sapiens (Human), UniProt Q96GG9). Put plainly: TR-FRET binding assay (biotin-DCN1 / Ac-UBE2M12-AlexaFluor488). The note with it: mean ± SD (n); read-out: DCN1_TRFRET Mean EC50. The procedure:
• IC50 values were generated using our TR-FRET binding assay and are represented as the mean of three replicates with errors reported as the standard deviation.
The assay cocktail was then incubated for 1 h at room temperature and distributed using a WellMate instrument (Matrix). Compounds to be screened were added to assay plates from DMSO stock solutions by pin transfer using 50SS pins (V&P Scientific). […] All compounds were tested in triplicate or more.
A general note: Time-resolved FRET reads energy transfer from a long-lived donor to a nearby acceptor.
DCN1, sequence (Q96GG9 whole entry): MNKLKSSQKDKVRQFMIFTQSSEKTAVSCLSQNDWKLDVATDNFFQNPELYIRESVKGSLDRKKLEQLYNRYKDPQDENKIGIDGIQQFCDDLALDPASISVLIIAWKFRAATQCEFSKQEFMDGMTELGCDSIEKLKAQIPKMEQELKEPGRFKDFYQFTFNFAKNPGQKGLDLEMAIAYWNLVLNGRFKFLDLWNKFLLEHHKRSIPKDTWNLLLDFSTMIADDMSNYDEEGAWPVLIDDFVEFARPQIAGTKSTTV
What is called EC50 is the concentration at which the effect is half-maximal. With `Cc1cccc(C(=O)N[C@@H]2C(=O)N(C)c3c(c(C)nn3-c3ccccc3)[C@@H]2c2ccc(F)cc2)c1` [RG-0005655, N-[(4S,5S)-4-(4-fluorophenyl)-3,7-dimethyl-6-oxo-1-phenyl-1H,4H,5H,6H,7H-pyrazolo[3,4-b]pyridin-5-yl]-3-methylbenzamide], the EC50 stood at 446 ± 68.1 nM. Turning to `CC(=O)N1C(=O)[C@@H](NC(=O)c2cccc(C)c2)[C@@H](c2ccc(F)cc2)c2c(C)nn(-c3ccccc3)c21` [RG-0005656, N-[(4S,5S)-7-acetyl-4-(4-fluorophenyl)-3-methyl-6-oxo-1-phenyl-1H,4H,5H,6H,7H-pyrazolo[3,4-b]pyridin-5-yl]-3-methylbenzamide], the 50% effective concentration (EC50) is 5640 ± 827 nM. In the case of `CCC(C)n1nc(C)c2c1N(C(C)=O)C(=O)[C@@H](NC(=O)c1cccc(C)c1)[C@H]2c1ccc(F)cc1` (stereo partly drawn) [RG-0005665, N-[(4S,5S)-7-acetyl-1-(butan-2-yl)-4-(4-fluorophenyl)-3-methyl-6-oxo-1H,4H,5H,6H,7H-pyrazolo[3,4-b]pyridin-5-yl]-3-methylbenzamide], the EC50 was determined as 5310 ± 850 nM. For `CCCn1nc(C)c2c1N(C)C(=O)[C@@H](NC(=O)c1cccc(C)c1)[C@H]2c1ccc(F)cc1` [RG-0007411, N-[(4S,5S)-4-(4-fluorophenyl)-3,7-dimethyl-6-oxo-1-propyl-1H,4H,5H,6H,7H-pyrazolo[3,4-b]pyridin-5-yl]-3-methylbenzamide] the value was 585 ± 106 nM. For `Cc1cccc(C(=O)N[C@@H]2C(=O)N(C)c3c(c(C)nn3C(C)(C)C)[C@@H]2c2ccc(F)cc2)c1` [RG-0007412, N-[(4S,5S)-1-tert-butyl-4-(4-fluorophenyl)-3,7-dimethyl-6-oxo-1H,4H,5H,6H,7H-pyrazolo[3,4-b]pyridin-5-yl]-3-methylbenzamide] the value was 2340 ± 745 nM; for `CCCN1C(=O)[C@@H](NC(=O)c2cccc(C)c2)[C@@H](c2ccc(F)cc2)c2c(C)nn(-c3ccccc3)c21` [RG-0007415, N-[(4S,5S)-4-(4-fluorophenyl)-3-methyl-6-oxo-1-phenyl-7-propyl-1H,4H,5H,6H,7H-pyrazolo[3,4-b]pyridin-5-yl]-3-methylbenzamide], 1040 ± 204 nM. Then `CCCn1nc(C)c2c1N(CC)C(=O)[C@@H](NC(=O)c1cccc(C)c1)[C@H]2c1ccc(F)cc1` [RG-0008665, N-[(4S,5S)-7-ethyl-4-(4-fluorophenyl)-3-methyl-6-oxo-1-propyl-1H,4H,5H,6H,7H-pyrazolo[3,4-b]pyridin-5-yl]-3-methylbenzamide], with 244 ± 20.8 nM. As to `CCCN1C(=O)[C@@H](NC(=O)c2cccc(C)c2)[C@@H](c2ccc(F)cc2)c2c(C)nn(CCC)c21` [RG-0008666, N-[(4S,5S)-4-(4-fluorophenyl)-3-methyl-6-oxo-1,7-dipropyl-1H,4H,5H,6H,7H-pyrazolo[3,4-b]pyridin-5-yl]-3-methylbenzamide], the EC50 was determined as 1170 ± 99.3 nM. For `Cc1cccc(C(=O)N[C@@H]2C(=O)N(C(C)C)c3c(c(C)nn3-c3ccccc3)[C@@H]2c2ccc(F)cc2)c1` [RG-0008670, N-[(4S,5S)-4-(4-fluorophenyl)-3-methyl-6-oxo-1-phenyl-7-(propan-2-yl)-1H,4H,5H,6H,7H-pyrazolo[3,4-b]pyridin-5-yl]-3-methylbenzamide], the 50% effective concentration (EC50) turned out to be 4140 ± 765 nM. Then `CCCN1CCN2C(=O)[C@@H](NC(=O)c3cccc(C)c3)[C@@H](c3ccc(F)cc3)C(C(C)=O)=C12` [RG-0008677, N-[(6S,7S)-8-acetyl-7-(4-fluorophenyl)-5-oxo-1-propyl-1H,2H,3H,5H,6H,7H-imidazo[1,2-a]pyridin-6-yl]-3-methylbenzamide], with 5790 nM; and `Cc1cccc(C(=O)N[C@@H]2C(=O)N3CCCn4nc(C)c(c43)[C@@H]2c2ccc(F)cc2)c1` [RG-0008682, N-[(5S,6S)-5-(4-fluorophenyl)-3-methyl-7-oxo-1,2,8-triazatricyclo[6.3.1.0^4,^12]dodeca-2,4(12)-dien-6-yl]-3-methylbenzamide], with 12300 nM; and `COCN1C(=O)[C@@H](NC(=O)c2cccc(C)c2)[C@@H](c2ccc(F)cc2)c2c(C)nn(-c3ccccc3)c21` [RG-0008859, N-[(4S,5S)-4-(4-fluorophenyl)-7-(methoxymethyl)-3-methyl-6-oxo-1-phenyl-1H,4H,5H,6H,7H-pyrazolo[3,4-b]pyridin-5-yl]-3-methylbenzamide], with 491 ± 25.5 nM. Then `CCN1C(=O)[C@@H](NC(=O)c2cccc(C)c2)[C@@H](c2ccc(F)cc2)c2c(C)nn(C(C)C)c21` [RG-0008860, N-[(4S,5S)-7-ethyl-4-(4-fluorophenyl)-3-methyl-6-oxo-1-(propan-2-yl)-1H,4H,5H,6H,7H-pyrazolo[3,4-b]pyridin-5-yl]-3-methylbenzamide], with 467 ± 28 nM; and `CCC(C)n1nc(C)c2c1N(CC)C(=O)[C@@H](NC(=O)c1cccc(C)c1)[C@H]2c1ccc(F)cc1` (stereo partly drawn) [RG-0008861, N-[(4S,5S)-1-(butan-2-yl)-7-ethyl-4-(4-fluorophenyl)-3-methyl-6-oxo-1H,4H,5H,6H,7H-pyrazolo[3,4-b]pyridin-5-yl]-3-methylbenzamide], with 827 ± 371 nM. On to `CCN1C(=O)[C@@H](NC(=O)c2cccc(C)c2)[C@@H](c2ccc(F)cc2)c2c(C)nn(-c3ccc(F)cc3)c21` [RG-0008866, N-[(4S,5S)-7-ethyl-1,4-bis(4-fluorophenyl)-3-methyl-6-oxo-1H,4H,5H,6H,7H-pyrazolo[3,4-b]pyridin-5-yl]-3-methylbenzamide], for which the EC50 stood at 489 ± 18.5 nM. Then `CCN1C(=O)[C@@H](NC(=O)c2cccc(C)c2)[C@@H](c2ccc(F)cc2)c2c(C)nn(CC)c21` [RG-0008869, N-[(4S,5S)-1,7-diethyl-4-(4-fluorophenyl)-3-methyl-6-oxo-1H,4H,5H,6H,7H-pyrazolo[3,4-b]pyridin-5-yl]-3-methylbenzamide], with 384 ± 30.6 nM.

For `CCN1C(=O)[C@@H](NC(=O)c2cccc(C)c2)[C@@H](c2ccc(F)cc2)c2c(C)nn(-c3ccccc3F)c21` [RG-0008870, N-[(4S,5S)-7-ethyl-1-(2-fluorophenyl)-4-(4-fluorophenyl)-3-methyl-6-oxo-1H,4H,5H,6H,7H-pyrazolo[3,4-b]pyridin-5-yl]-3-methylbenzamide], the EC50 amounted to 187 ± 5.73 nM. As to `CCN1C(=O)[C@@H](NC(=O)c2cccc(C)c2)[C@@H](c2ccc(F)cc2)c2c(C)nn(CC(F)(F)F)c21` [RG-0008871, N-[(4S,5S)-7-ethyl-4-(4-fluorophenyl)-3-methyl-6-oxo-1-(2,2,2-trifluoroethyl)-1H,4H,5H,6H,7H-pyrazolo[3,4-b]pyridin-5-yl]-3-methylbenzamide], the concentration giving a half-maximal response (EC50) is 729 ± 90.1 nM. Then `CCN1C(=O)[C@@H](NC(=O)c2cccc(C)c2)[C@@H](c2ccc(F)cc2)c2c(C)nn(C3CC3)c21` [RG-0008872, N-[(4S,5S)-1-cyclopropyl-7-ethyl-4-(4-fluorophenyl)-3-methyl-6-oxo-1H,4H,5H,6H,7H-pyrazolo[3,4-b]pyridin-5-yl]-3-methylbenzamide], with 190 ± 35.6 nM; and `CCN1C(=O)[C@@H](NC(=O)c2cccc(C)c2)[C@@H](C(C)C)c2c(C)nn(-c3ccccc3)c21` [RG-0008876, N-[(4S,5S)-7-ethyl-3-methyl-6-oxo-1-phenyl-4-(propan-2-yl)-1H,4H,5H,6H,7H-pyrazolo[3,4-b]pyridin-5-yl]-3-methylbenzamide], with 1750 ± 165 nM.

Values taken from patent US12409171B2, “Pharmaceutically active pyrazolo-pyridone modulators of DCN1/2-mediated cullin neddylation” (UNIVERSITY OF KENTUCKY RESEARCH FOUNDATION, priority 2019, dated 2025).
